This experiment has as its system artificially reconstructed neural cell network (rat cerebral cortex neurons). Nature of the experiment: stimulus transmission in reconstructed neural cell network on 64-electrode sensor. The format is cell-based. The following applies: 40 μM, treated for 10 minutes; constant voltage stimulus at one electrode (row 5, column 5). The protocol: Neurons were prepared from the cerebral cortex of gestation day 17 rat embryos and were suspended in Dulbecco's modified medium, and were dispensed into each container of a sensor comprising 64 electrodes and containers as shown in FIG. 3 at a concentration of 5×10^5 cells/ml, followed by culturing for two weeks. As a result, an artificial neural cell network was reconstructed on the sensor. The sensor containing the reconstructed neural cell network was used as follows. An apparatus having the configuration of FIG. […] The transmission of the stimulus was measured by detecting cell potentials at the remaining 63 electrodes. […] A neural cell network reconstructed as in Examples 1 and 2 was treated with 40 μM DNQX (6,7-Dinitroquinoxaline-2,3(1H,4H)-dione) for 10 minutes. As in Example 2, a constant voltage stimulus was applied to a cell on a sensor. The transmission of the stimulus was measured by detecting cell potentials at the remaining 63 electrodes.

`O=c1[nH]c2cc([N+](=O)[O-])c([N+](=O)[O-])cc2[nH]c1=O` [DNQX, 6,7-Dinitroquinoxaline-2,3(1H,4H)-dione]: the “response (cell potentials) at the remaining 63 electrodes to constant voltage stimulus” value is “a response was not observed at any of the electrodes”.

These data come from patent US7006929B2, “Signal detecting sensor provided with multi-electrode” (Matsushita Electric Industrial Co., Ltd., priority 2001, dated 2006).
